Read-outs that look alike come from different tables or passages of the source.
Test system: NLRP3
Test: IL-1β secretion assay in PMA-differentiated, LPS/nigericin-stimulated THP-1 cells (384-well, ELISA read-out)
Assay type: cell-based, human
How it was run: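 Secreted IL-1β quantified by capture ELISA from supernatants of PMA-differentiated THP-1 cells (30K per well). Sequence: LPS 25 ng/mL priming 2 h, compound 1 h, nigericin 2 h; dose-responses normalized between high (LPS plus 5 μM nigericin) and low (LPS alone) controls.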

[1] = Homo sapiens, THP-1, Table 4, IL-1β secretion, LPS/nigericin-stimulated THP-1 cells, read-out: IC50
[2] = Homo sapiens, THP-1, IL-1β secretion, PMA-differentiated THP-1 cells, LPS then nigericin stimulation, ELISA read at 450 nm, read-out: Activity
[3] = Table 4, IL-1β secretion, LPS/nigericin-stimulated THP-1 cells, read-out: IC50

Row | Structure (SMILES) | IC50 [1] [µM] | IC50 [2] [µM] | IC50 (IL-1β secretion, PMA-differentiated THP-1 cells, LPS then nigericin stimulation, ELISA read at 450 nm, read-out: Activity) [µM] | IC50 [3] [µM]
1 | CC(C)(C)OC(=O)N1CCC12CC(NC(=O)CN1CC3(CC3)c3cc(Br)ccc3C1=O)C2 (centres unmarked) [Example 394, tert-butyl 6-[[2-(6-bromo-1-oxospiro[3H-isoquinoline-4,1′-cyclopropane]-2-yl)acetyl]amino]-1-azaspiro[3.3]heptane-1-carboxylate] | 5.21 | – | – | –
2 | O=C(CN1CC2(CC2)c2cc(Br)ccc2C1=O)Nc1cnccn1 [Example 411, 2-(6-bromo-1-oxospiro[3H-isoquinoline-4,1′-cyclopropane]-2-yl)-N-pyrazin-2-ylacetamide] | 1.34 | – | – | –
3 | O=C(CN1CC2(CC2)c2cc(F)ccc2C1=O)Nc1ncc(F)cn1 [Example 215, 2-(6-fluoro-1-oxospiro[3H-isoquinoline-4,1′-cyclopropane]-2-yl)-N-(5-fluoropyrimidin-2-yl)acetamide] | 6.86 | < 10 | – | –
4 | O=C(CN1CC2(CC2)c2cc(Br)ccc2C1=O)NC12CCC(O)(CC1)CC2 [Example 57, 2-(6-bromo-1-oxo-spiro[3H-isoquinoline-4,1′-cyclopropane]-2-yl)-N-(4-hydroxy-1-bicyclo[2.2.2]octanyl)acetamide] | 5.92 | < 10 | – | –
5 | O=C(CN1CC2(CC2)c2cc(Br)ccc2C1=O)NC1CCN(c2cccnc2)CC1 [Example 369, 2-(6-bromo-1-oxospiro[3H-isoquinoline-4,1′-cyclopropane]-2-yl)-N-(1-pyridin-3-ylpiperidin-4-yl)acetamide] | 6.51 | – | – | –
6 | Cc1cnc(NC(=O)CN2C[C@@]3(C[C@@H]3F)c3c(ccc(Br)c3F)C2=O)nc1 (single isomer, unassigned) [Example 225, 2-[(2′s,4r)-6-bromo-2′,5-difluoro-1-oxospiro[3H-isoquinoline-4,1′-cyclopropane]-2-yl]-N-(5-methylpyrimidin-2-yl)acetamide] | 0.019 | < 10 | – | –
7 | O=C(CN1CC2(CC2)c2cc(Cl)ccc2C1=O)Nc1ncc(F)cn1 [Example 94, 2-(6-chloro-1-oxospiro[3H-isoquinoline-4,1′-cyclopropane]-2-yl)-N-(5-fluoropyrimidin-2-yl)acetamide] | 0.369 | < 10 | – | –
8 | Cn1cnc2cc(NC(=O)CN3CC4(CC4)c4cc(Br)ccc4C3=O)ccc21 [Example 147, 2-(6-bromo-1-oxospiro[3H-isoquinoline-4,1′-cyclopropane]-2-yl)-N-(1-methylbenzimidazol-5-yl)acetamide] | 8.12 | < 10 | – | –
9 | Cc1nc(NC(=O)CN2CC3(CC3)c3cc(Br)ccc3C2=O)c(F)cc1C#N [Example 390, 2-(6-bromo-1-oxospiro[3H-isoquinoline-4,1′-cyclopropane]-2-yl)-N-(5-cyano-3-fluoro-6-methylpyridin-2-yl)acetamide] | 9.84 | – | – | –
10 | O=C(CN1CC2(CC2)c2cc(Br)ccc2C1=O)Nc1ccc(=O)[nH]n1 [Example 430, 2-(6-bromo-1-oxospiro[3H-isoquinoline-4,1′-cyclopropane]-2-yl)-N-(6-oxo-1H-pyridazin-3-yl)acetamide] | 0.634 | – | – | –
11 | O=C(CN1C[C@@]2(C[C@@H]2F)c2c(ccc(C3CC3)c2F)C1=O)Nc1ncc(F)cn1 (single isomer, unassigned) [Example 228, 2-[(2′s,4r)-6-cyclopropyl-2′,5-difluoro-1-oxospiro[3H-isoquinoline-4,1′-cyclopropane]-2-yl]-N-(5-fluoropyrimidin-2-yl)acetamide] | 0.021 | < 10 | – | –
12 | O=C(CN1CC2(CC2)c2cc(Br)ccc2C1=O)NC1(CO)CC1 [Example 160, 2-(6-bromo-1-oxospiro[3H-isoquinoline-4,1′-cyclopropane]-2-yl)-N-[1-(hydroxymethyl)cyclopropyl]acetamide] | 4.2 | < 10 | – | –
13 | O=C(CN1CC2(CC2)c2cc(Br)ccc2C1=O)Nc1ncc(C2CC2(F)F)cn1 (centres unmarked) [Example 309, 2-(6-bromo-1-oxospiro[3H-isoquinoline-4,1′-cyclopropane]-2-yl)-N-[5-(2,2-difluorocyclopropyl)pyrimidin-2-yl]acetamide] | 0.696 | – | – | –
14 | O=C(CN1CC(C(F)F)c2c(ccc(Br)c2F)C1=O)Nc1ncc(F)cn1 (single isomer, unassigned) [Example 296, 2-[6-bromo-4-(difluoromethyl)-5-fluoro-1-oxo-3,4-dihydroisoquinolin-2-yl]-N-(5-fluoropyrimidin-2-yl)acetamide] | – | – | < 10 | 0.345
15 | CCOC(=O)N1CCC(NC(=O)CN2CC3(CC3)c3cc(Br)ccc3C2=O)CC1 [Example 378, ethyl 4-[[2-(6-bromo-1-oxospiro[3H-isoquinoline-4,1′-cyclopropane]-2-yl)acetyl]amino]piperidine-1-carboxylate] | 4.98 | – | – | –
16 | Cc1nc(-c2cccc(NC(=O)CN3CC4(CC4)c4cc(Br)ccc4C3=O)c2)cs1 [Example 142, 2-(6-bromo-1-oxospiro[3H-isoquinoline-4,1′-cyclopropane]-2-yl)-N-[3-(2-methyl-1,3-thiazol-4-yl)phenyl]acetamide] | 1.78 | < 10 | – | –

Row | Structure (SMILES) | IC50 [1] [µM] | IC50 [2] [µM] | IC50 (IL-1β secretion, PMA-differentiated THP-1 cells, LPS then nigericin stimulation, ELISA read at 450 nm, read-out: Activity) [µM] | IC50 [3] [µM]
17 | O=C(CN1CC2(CC2)c2cc(Br)ccc2C1=O)Nc1ncc(I)cn1 [Example 269, 2-(6-bromo-1-oxospiro[3H-isoquinoline-4,1′-cyclopropane]-2-yl)-N-(5-iodopyrimidin-2-yl)acetamide] | 0.087 | < 10 | – | –
18 | O=C(CN1CC2(CC2)c2cc(Br)ccc2C1=O)NC1Cc2ccccc2C1 [Example 129, 2-(6-bromo-1-oxospiro[3H-isoquinoline-4,1′-cyclopropane]-2-yl)-N-(2,3-dihydro-1H-inden-2-yl)acetamide] | 7.2 | < 10 | – | –
19 | CC1(O)CC(NC(=O)CN2CC3(CC3(F)F)c3c(ccc(Br)c3F)C2=O)C1 (single isomer, unassigned) [Example 326, N-(3-cis-hydroxy-3-methylcyclobutyl)-2-[6-bromo-1′,1′,5-trifluoro-1-oxospiro[3H-isoquinoline-4,2′-cyclopropane]-2-yl]acetamide] | – | – | – | 0.013
20 | O=C(CN1CC2(CC2)c2cc(Br)ccc2C1=O)Nc1ncc(C2=COCC2)cn1 [Example 424, 2-(6-bromo-1-oxospiro[3H-isoquinoline-4,1′-cyclopropane]-2-yl)-N-[5-(2,3-dihydrofuran-4-yl)pyrimidin-2-yl]acetamide] | 0.7 | – | – | –
21 | Cn1cc(-c2cnc(NC(=O)CN3CC4(CC4)c4cc(Br)ccc4C3=O)nc2)cn1 [Example 257, 2-(6-bromo-1-oxospiro[3H-isoquinoline-4,1′-cyclopropane]-2-yl)-N-[5-(1-methylpyrazol-4-yl)pyrimidin-2-yl]acetamide] | 0.392 | < 10 | – | –
22 | O=C(CN1CC(C(F)(F)F)c2cc(I)ccc2C1=O)Nc1ncc(F)cn1 (centres unmarked) [Example 301, N-(5-fluoropyrimidin-2-yl)-2-[6-iodo-1-oxo-4-(trifluoromethyl)-3,4-dihydroisoquinolin-2-yl]acetamide] | 0.027 | < 10 | – | –
23 | O=Cc1cnc(NC(=O)CN2CC3(CC3)c3cc(Br)ccc3C2=O)c(F)c1 [Example 37, 2-(6-bromo-1-oxo-spiro[3H-isoquinoline-4,1′-cyclopropane]-2-yl)-N-(3-fluoro-5-formyl-2-pyridyl)acetamide] | 1.32 | < 10 | – | –
24 | N#Cc1cc(F)cnc1NC(=O)CN1CC2(CC2)c2cc(Br)ccc2C1=O [Example 392, 2-(6-bromo-1-oxospiro[3H-isoquinoline-4,1′-cyclopropane]-2-yl)-N-(3-cyano-5-fluoropyridin-2-yl)acetamide] | 5.7 | – | – | –
25 | CCc1cnc(NC(=O)CN2CC3(CC3)c3cc(Br)ccc3C2=O)nc1 [Example 204, 2-(6-bromo-1-oxospiro[3H-isoquinoline-4,1′-cyclopropane]-2-yl)-N-(5-ethylpyrimidin-2-yl)acetamide] | 0.646 | < 10 | – | –
26 | Cc1cc(NC(=O)CN2CC3(CC3)c3cc(Br)ccc3C2=O)n(C)n1 [Example 144, 2-(6-bromo-1-oxospiro[3H-isoquinoline-4,1′-cyclopropane]-2-yl)-N-(2,5-dimethylpyrazol-3-yl)acetamide] | 3.91 | < 10 | – | –
27 | O=C(CN1CC2(CC2)c2cc(Br)ccc2C1=O)Nc1ccc2cncn2c1 [Example 201, 2-(6-bromo-1-oxospiro[3H-isoquinoline-4,1′-cyclopropane]-2-yl)-N-imidazo[1,5-a]pyridin-6-ylacetamide] | 1.32 | < 10 | – | –
28 | O=C(CN1CC2(CC2)c2cc(Br)ccc2C1=O)Nc1ncc2c(n1)OCC2 [Example 329, 2-(6-bromo-1-oxospiro[3H-isoquinoline-4,1′-cyclopropane]-2-yl)-N-(5,6-dihydrofuro[2,3-d]pyrimidin-2-yl)acetamide] | 0.93 | – | – | –
29 | O=C(CN1C[C@]2(C[C@H]2F)c2cc(Br)ccc2C1=O)Nc1ncc(F)cn1 [Example 79, 2-[(2′R,4S)-6-bromo-2′-fluoro-1-oxospiro[3H-isoquinoline-4,1′-cyclopropane]-2-yl]-N-(5-fluoropyrimidin-2-yl)acetamide] | 0.015 | < 10 | – | –
30 | CN(C(=O)CN1CC2(CC2)c2cc(Br)ccc2C1=O)C1CC(C)(O)C1 (stereo not drawn) [Example 342, 2-(6-bromo-1-oxospiro[3H-isoquinoline-4,1′-cyclopropane]-2-yl)-N-(3-cis-hydroxy-3-methylcyclobutyl)-N-methylacetamide] | 17.1 | – | – | –
31 | N#Cc1cnc(NC(=O)CN2CC3(CC3)c3c(ccc(Br)c3F)C2=O)nc1 [Example 105, 2-(6-bromo-5-fluoro-1-oxospiro[3H-isoquinoline-4,1′-cyclopropane]-2-yl)-N-(5-cyanopyrimidin-2-yl)acetamide] | 0.119 | < 10 | – | –
